The values below are quoted from earlier work in patent publication US20070025931A1, “Powdery preparations containing 2.4.6-trianilino-p-(carbo-2'-ethylhexyl-1'-oxi)-1.3.5-triazine” (BASF Aktiengesellschaft, priority 2004, published 2007).

The conditions of this data set: at 314 nm.

As to `CCCCC(CC)COC(=O)c1ccc(Nc2nc(Nc3ccc(C(=O)OCC(CC)CCCC)cc3)nc(Nc3ccc(C(=O)OCC(CC)CCCC)cc3)n2)cc1` (stereo not shown) [Uvinul® T150, 2,4,6-Trianilino-p-(carbo-2′-ethylhexyl-1′-oxy)-1,3,5-triazine], the absorbance coefficient is listed as more than 1500.
